Experimental data as given in US20110044938A1 (NYCOMED GMBH, priority 2006, published 2011).

How the values were obtained:
[1] = test system: subclones of RKO colon adenocarcinoma cells (RKOp27 or RKOp21) arrested by Ponasterone A; assay: Alamar Blue cell viability assay, cell cycle specific mode of action: cells arrested by ectopic p27Kip1 induced by Ponasterone A versus proliferating cells; format: cell-based; conditions: Homo sapiens, RKO p27 induced (arrested) cells, 10 μM Ponasterone A, 72 hours, value = class bound given in Table A, read-out: −logIC50 RKO p27 induced (arrested) (converted)
In short: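 RKOp27 or RKOp21 cells, 15000/well in DMEM/10% FCS, either arrested by p27Kip1 induced with 10 μM Ponasterone A or proliferating without inducer; compound added after 24 h, 72 h at 37° C. Alamar Blue fluorescence (544/590 nm), viability as % of untreated cells; −log IC50 reported.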

[2] = test system: RKO (RKOp27) human colon adenocarcinoma cells; assay: Alamar Blue cell viability assay, anti-proliferative/cytotoxic activity on proliferating RKO subclones; format: cell-based; conditions: RKOp27, 72 h, RKO p27 uninduced (proliferating) cells, value = class bound given in Table A, read-out: −logIC50 RKO p27 uninduced (proliferating) (converted)
In short: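 RKOp27 subclones (5000 cells/well) were exposed 24 h after seeding to semi-log compound dilutions in DMEM with 10% FCS, in quadruplicate, for 72 h at 37 °C. Viability was read by Alamar Blue fluorescence (544/590 nm) relative to untreated cells (1% DMSO medium). IC50 came from concentration-effect curves and is reported as −log IC50 [mol/l].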

Compound | IC50 [1] [nM] | IC50 [2] [nM]
COc1cccc(C(C)CC(=O)Nc2sc3c(c2C#N)CCC(COC(=O)NCc2cn(C)nc2C)C3)c1 (centres unmarked) [Example 339, (1,3-Dimethyl-1H-pyrazol-4-ylmethyl)-carbamic acid 3-cyano-2-[3-(3-methoxy-phenyl)-butanoylamino]-4,5,6,7-tetrahydro-benzo[b] thiophen-6-ylmethyl ester] | ≥ 50100 | 501 to 2000
COc1cccc(C(C)CC(=O)Nc2sc3c(c2C#N)CCC(COC(=O)NCc2ccnn2C)C3)c1 (centres unmarked) [Example 332, (2-Methyl-2H-pyrazol-3-ylmethyl)-carbamic acid 3-cyano-2-[3-(3-methoxy-phenyl)-butanoylamino]-4,5,6,7-tetrahydro-benzo[b] thiophen-6-ylmethyl ester] | ≥ 50100 | 501 to 2000
CCn1nccc1CNC(=O)OC1CCc2c(sc(NC(=O)/C=C/c3cccnc3)c2C#N)C1 (centres unmarked) [Example 69, (2-Ethyl-2H-pyrazol-3-ylmethyl)-carbamic acid 3-cyano-2-((E)-3-pyridin-3-yl-allanoylamino)-4,5,6,7-tetrahydro-benzo[b]thiophen-6-yl ester] | ≥ 100000 | ≤ 501
Cc1nc(CNC(=O)OCC2CCc3c(sc(NC(=O)/C=C/c4cccnc4)c3C#N)C2)cs1 (centres unmarked) [Example 66, (2-Methyl-thiazol-4-ylmethyl)-carbamic acid 3-cyano-2-((E)-3-pyridin-3-yl-allanoylamino)-4,5,6,7-tetrahydro-benzo[b]thiophen-6-ylmethyl ester] | ≥ 100000 | ≤ 501
CCn1nccc1CNC(=O)OCC1CCc2c(sc(NC(=O)CC(C)c3ccccc3)c2C#N)C1 (centres unmarked) [Example 322, (2-Ethyl-2H-pyrazol-3-ylmethyl)-carbamic acid 3-cyano-2-(3-phenyl-butanoylamino)-4,5,6,7-tetrahydro-benzo[b] thiophen-6-ylmethyl ester] | ≥ 50100 | ≤ 501
CCCNC(=O)OC1CCc2c(sc(NC(=O)/C=C/c3cccnc3)c2C#N)C1 (centres unmarked) [Example 107, Propyl-carbamic acid 3-cyano-2-((E)-3-pyridin-3-yl-allanoylamino)-4,5,6,7-tetrahydro-benzo[b]thiophen-6-yl ester] | ≥ 100000 | ≤ 501
N#Cc1c(NC(=O)/C=C/c2cccnc2)sc2c1CCC(OC(=O)N1CCC[C@H]1CO)C2 (stereo partly drawn) [Example 108, 2-(S)-(Hydroxymethyl) pyrrolidine-1-carboxylic acid 3-cyano-2-((E)-3-pyridin-3-yl-allanoylamino)-4,5,6,7-tetrahydro-benzo[b]thiophen-6-yl ester] | ≥ 100000 | 501 to 2000
CCOc1ccccc1CCC(=O)Nc1sc2c(c1C#N)CCC(OC(=O)NCc1cnn(C)c1)C2 (centres unmarked) [Example 170, (1-Methyl-1H-pyrazol-4-ylmethyl)-carbamic acid 3-cyano-2-[3-(2-ethoxy-phenyl)-propanoylamino]-4,5,6,7-tetrahydro-benzo[b]thiophen-6-yl ester] | ≥ 100000 | ≤ 501
COc1cccc(C(C)CC(=O)Nc2sc3c(c2C#N)CCC(COC(=O)NC(C)c2cccnc2)C3)c1 (centres unmarked) [Example 335, (1-Pyridin-3-yl-ethyl)-carbamic acid 3-cyano-2-[3-(3-methoxy-phenyl)-butanoylamino]-4,5,6,7-tetrahydro-benzo[b] thiophen-6-ylmethyl ester] | ≥ 50100 | 501 to 2000
Cc1cc(CNC(=O)OCC2CCc3c(sc(NC(=O)CC(C)c4ccccc4)c3C#N)C2)n(C)n1 (centres unmarked) [Example 321, (2,5-Dimethyl-2H-pyrazol-3-ylmethyl)-carbamic acid 3-cyano-2-(3-phenyl-butanoylamino)-4,5,6,7-tetrahydro-benzo[b] thiophen-6-ylmethyl ester] | ≥ 50100 | ≤ 501
CCOc1ccccc1CCC(=O)Nc1sc2c(c1C#N)CCC(OC(=O)NCc1nccs1)C2 (centres unmarked) [Example 206, Thiazol-2-ylmethyl-carbamic acid 3-cyano-2-[3-(2-ethoxy-phenyl)-propanoylamino]-4,5,6,7-tetrahydro-benzo[b]thiophen-6-yl ester] | ≥ 100000 | ≤ 501
Cc1oncc1CNC(=O)OCC1CCc2c(sc(NC(=O)/C=C/c3cccnc3)c2C#N)C1 (centres unmarked) [Example 71, (5-Methyl-isoxazol-4-ylmethyl)-carbamic acid 3-cyano-2-((E)-3-pyridin-3-yl-allanoylamino)-4,5,6,7-tetrahydro-benzo[b]thiophen-6-ylmethyl ester] | ≥ 100000 | 501 to 2000
N#Cc1c(NC(=O)/C=C/c2cccnc2)sc2c1CCC(COC(=O)NC1COC1)C2 (centres unmarked) [Example 149, Oxetan-3-yl-carbamic acid 3-cyano-2-((E)-3-pyridin-3-yl-allanoylamino)-4,5,6,7-tetrahydro-benzo[b]thiophen-6-ylmethyl ester] | ≥ 100000 | 501 to 2000
N#Cc1c(NC(=O)/C=C/c2cccnc2)sc2c1CCC(COC(=O)N1CCCO1)C2 (centres unmarked) [Example 116, Isoxazolidine-2-carboxylic acid 3-cyano-2-((E)-3-pyridin-3-yl-allanoylamino)-4,5,6,7-tetrahydro-benzo[b]thiophen-6-ylmethyl ester] | ≥ 100000 | ≤ 501
Cc1ccncc1/C=C/C(=O)Nc1sc2c(c1C#N)CCC(COC(=O)N1CCCC1)C2 (centres unmarked) [Example 130, Pyrrolidine-1-carboxylic acid 3-cyano-2-[(E)-3-(4-methyl-pyridin-3-yl)-allanoylamino]-4,5,6,7-tetrahydro-benzo[b]thiophen-6-ylmethyl ester] | ≥ 100000 | ≤ 501
N#Cc1c(NC(=O)/C=C/c2cccnc2)sc2c1CCC(OC(=O)N1CCC(O)C1)C2 (centres unmarked) [Example 76, 3-Hydroxy-pyrrolidine-1-carboxylic acid 3-cyano-2-((E)-3-pyridin-3-yl-allanoylamino)-4,5,6,7-tetrahydro-benzo[b]thiophen-6-yl ester] | ≥ 100000 | ≤ 501
COc1cccc(C(C)CC(=O)Nc2sc3c(c2C#N)CCC(COC(=O)NCc2cc(C)nn2C)C3)c1 (centres unmarked) [Example 340, (2,5-Dimethyl-2H-pyrazol-3-ylmethyl)-carbamic acid 3-cyano-2-[3-(3-methoxy-phenyl)-butanoyl-amino]-4,5,6,7-tetrahydro-benzo[b]thiophen-6-ylmethyl ester] | ≥ 10000 | 501 to 2000
N#Cc1c(NC(=O)/C=C/c2cccnc2)sc2c1CCC(COC(=O)NCCn1ccnc1)C2 (centres unmarked) [Example 30, (2-Imidazol-1-yl-ethyl)-carbamic acid-3-cyano-2-((E)-3-pyridin-3-yl-allanoylamino)-4,5,6,7-tetrahydro-benzo[b]thiophen-6-ylmethyl ester] | ≥ 100000 | 501 to 2000
COc1cccc(CCC(=O)Nc2sc3c(c2C#N)CCC(OC(=O)NCC2CCCO2)C3)c1 (centres unmarked) [Example 225, (Tetrahydro-furan-2-ylmethyl)-carbamic acid 3-cyano-2-[3-(3-methoxy-phenyl)-propanoylamino]-4,5,6,7-tetrahydro-benzo[b]thiophen-6-yl ester] | ≥ 100000 | 501 to 2000
N#Cc1c(NC(=O)/C=C/c2cccnc2)sc2c1CCC(OC(=O)N1CC[C@@H](O)C1)C2 (stereo partly drawn) [Example 147, (R)-3-Hydroxy-pyrrolidine-1-carboxylic acid 3-cyano-2-((E)-3-pyridin-3-yl-allanoylamino)-4,5,6,7-tetrahydro-benzo[b]thiophen-6-yl ester] | ≥ 100000 | 501 to 2000
CS(=O)(=O)NC1CCN(C(=O)OC2CCc3c(sc(NC(=O)/C=C/c4cccnc4)c3C#N)C2)CC1 (centres unmarked) [Example 127, 4-Methane-sulfonylamino-piperidine-1-carboxylic acid 3-cyano-2-((E)-3-pyridin-3-yl-allanoylamino)-4,5,6,7-tetrahydro-benzo[b]thiophen-6-yl ester] | ≥ 100000 | ≤ 501
CCOc1ccccc1CCC(=O)Nc1sc2c(c1C#N)CCC(COC(=O)NCc1nnc(C)o1)C2 (centres unmarked) [Example 200, (5-Methyl-[1,3,4]oxadiazol-2-ylmethyl)-carbamic acid 3-cyano-2-[3-(2-ethoxy-phenyl)-propanoylamino]-4,5,6,7-tetrahydro-benzo[b]thiophen-6-ylmethyl ester] | ≥ 100000 | 501 to 2000
COc1cccc(C(C)CC(=O)Nc2sc3c(c2C#N)CCC(COC(=O)NC(C)c2ccnn2C)C3)c1 (centres unmarked) [Example 337, [1-(2-Methyl-2H-pyrazol-3-yl)-ethyl]-carbamic acid 3-cyano-2-[3-(3-methoxy-phenyl)-butanoylamino]-4,5,6,7-tetrahydro-benzo[b] thiophen-6-ylmethyl ester] | ≥ 50100 | 501 to 2000
CCOc1ccccc1CCC(=O)Nc1sc2c(c1C#N)CCC(COC(=O)N1CCOCC1)C2 (centres unmarked) [Example 216, Morpholine-4-carboxylic acid 3-cyano-2-[3-(2-ethoxy-phenyl)-propanoylamino]-4,5,6,7-tetrahydro-benzo[b]thiophen-6-ylmethyl ester] | ≥ 100000 | ≤ 501
CCCNC(=O)OCC1CCc2c(sc(NC(=O)/C=C/c3cccnc3)c2C#N)C1 (centres unmarked) [Example 103, Propyl-carbamic acid 3-cyano-2-((E)-3-pyridin-3-yl-allanoylamino)-4,5,6,7-tetrahydro-benzo[b]thiophen-6-ylmethyl ester] | ≥ 100000 | 501 to 2000
